Reference: patent publication US20200093103A1, “BREEDING WATER FOR ANGUILLIFORMES AND METHOD FOR REARING ANGUILLIFORMES” (SHIN NIPPON BIOMEDICAL LABORATORIES, LTD., priority 2016, published 2020)

Tested on: Anguilla japonica leptocephali
Test: Induction of Anguilla japonica metamorphosis by T4 treatment in 23° C. breeding water
Format: in vivo
Design: key: L: During life, no characteristics of metamorphosis seen.; Stage 1: Starting phase of metamorphosis. The rostral end is rounded, and intestinal degeneration starts.; Stage 2: Peak phase of metamorphosis. Intestinal degeneration becomes pronounced.; Stage 3: Late phase of metamorphosis.; Stage 4: Pre-glass eel stage. Almost the eel form, but the body height still remains
From the text: Stage 1: Starting phase of metamorphosis. The rostral end is rounded, and intestinal degeneration starts.
Stage 2: Peak phase of metamorphosis. Intestinal degeneration becomes pronounced. In the second half, the anus reaches to near the last vertical blood vessel (VBV last).
Stage 3: Late phase of metamorphosis. The preanal length (PAL) becomes equal to or shorter than the last vertical blood vessel length (VBV last Length) (PAL VBV last Length). The body height is apparently low.
Stage 4: Pre-glass eel stage. Almost the eel form, but the body height still remains. Melanophores on the body surface or endogenous melanophores are not yet seen.
Elver stage: Juvenile stage. Food intake can be identified.
A thyroid hormone (e.g., thyroxine (T4)) is adjusted to 50 to 100 mM in a 1- to 2-mL volume messflask. As a solvent, known solvents (water, alcohol) can be used. Ethanol is preferably used as the solvent.
For example, using ethanol as a solvent, T4 adjusted to 50 mM is diluted 500-fold, 5,000-fold, and 50,000-fold, respectively, and adjusted to […], 1 μM, and 100 nM. A feed can be prepared in this manner.
Artificial seawater is added to a breeding vessel, and 1/1000 of the […] T4 is added to prepare […] T4 breeding water.
Half of the breeding water is replaced every two days with breeding water of the same concentration. In the case where the concentration is changed, for example, in the case of changing from 10 nM to 2 nM, 80% to the breeding water is removed, and unadjusted artificial seawater is newly added to make 1 L.
Leptocephali visually considered to have reached a total length of 40 mm (or may be 30 mm to 50 mm, may be 35 mm to 45 mm, or may also be 35 mm or more, 40 mm or more, or 45 mm or more) are selected, anesthetized with 2-phenoxyethanol, and then photographed, and the total length of each larva is measured using an image analyzing device.
The larvae are placed in 10 nM T4 breeding water and then placed in an incubator set at 23° C., and breeding is started. In first one week, observation is performed every two days, and half of the 10 nM T4 breeding water is replaced each time. The average amount of thyroid hormone in the breeding water in stage 1 is 1 nM to 100 nM, for example, and may also be 3 nM to 30 nM, or 5 nM to 20 nM.
For larvae visually judged to have reached the second half of stage 2, the concentration of the breeding water is changed. The breeding water is diluted 5-fold or 10-fold and adjusted to 2 nM or 1 nM T4, and breeding is continued. The average amount of thyroid hormone in the breeding water in stage 2 may be, as compared with the breeding water of stage 1, diluted 2-fold to 20-fold, diluted 3 to 15-fold, or diluted 5 to 10-fold as described above. The average amount of thyroid hormone in the breeding water in stage 2 is 0.1 nM to 20 nM, for example, and may also be 0.5 nM to 10 nM, 1 nM to 5 nM, or 1 nM to 2 nM.
For larvae visually judged to have reached stage 3, the breeding water is quickly changed 0.2 nM T4 breeding water, which is a 5-fold dilution of 1 nM T4 breeding water, and further changed to 0.1 nM T4 breeding water on the following day. […] Also, in larvae whose anus position has not reached the last vertical hemal spine, when they are judged to be on the brink of stage 3, the concentration is changed as above. The average amount of thyroid hormone in the breeding water in stage 3 may be, as compared with the breeding water of stage 2, diluted 2-fold to 50-fold, diluted 3 to 15-fold, diluted 4 to 6-fold, or diluted 5-fold as described above. The average amount of thyroid hormone in the breeding water in stage 3 is 0.01 nM to 2 nM, for example, and may also be 0.05 nM to 1 nM, 0.1 nM to 0.5 nM, or 0.1 nM to 0.2 nM. […] That is, the concentration may be changed such that the thyroid hormone becomes undetectable in the breeding water in the course of stage 3.
In stage 3, breeding is continuously performed in the 0.1 nM T4 breeding water. […]

For `N[C@@H](Cc1cc(I)c(Oc2cc(I)c(O)c(I)c2)c(I)c1)C(=O)O` [T4, thyroxine], the metamorphosis stage (individual Exp. 5-2, 175 days old, total length 41.3 mm at start, c3 onward = treatment days 1,3,5,7,8,9,10,11,12,13,14,15,16,17,18, T4 (nM) 10,10,10,10,2,1,0.2,0.1,0.1,0.1,0.1,0.1, treatment day 14, T4 0.1 nM) was 3, the metamorphosis stage (individual Exp. 5-2, 175 days old, total length 41.3 mm at start, c3 onward = treatment days 1,3,5,7,8,9,10,11,12,13,14,15,16,17,18, T4 (nM) 10,10,10,10,2,1,0.2,0.1,0.1,0.1,0.1,0.1, treatment day 15, T4 0.1 nM) was 3 and the metamorphosis stage (individual Exp. 5-2, 175 days old, total length 41.3 mm at start, c3 onward = treatment days 1,3,5,7,8,9,10,11,12,13,14,15,16,17,18, T4 (nM) 10,10,10,10,2,1,0.2,0.1,0.1,0.1,0.1,0.1, treatment day 16) was 4. For the same compound, the metamorphosis stage (individual Exp. 5-3, 175 days old, total length 41.7 mm at start, c3 onward = treatment days 1,3,5,7,8,9,10,11,12,13,14,15,16,17,18, T4 (nM) 10,10,10,10,2,1,0.2,0.1,0.1,0.1,0.1,0.1, treatment day 1, T4 10 nM) was “L”, the metamorphosis stage (individual Exp. 5-3, 175 days old, total length 41.7 mm at start, c3 onward = treatment days 1,3,5,7,8,9,10,11,12,13,14,15,16,17,18, T4 (nM) 10,10,10,10,2,1,0.2,0.1,0.1,0.1,0.1,0.1, treatment day 3, T4 10 nM) was “L” and the metamorphosis stage (individual Exp. 5-3, 175 days old, total length 41.7 mm at start, c3 onward = treatment days 1,3,5,7,8,9,10,11,12,13,14,15,16,17,18, T4 (nM) 10,10,10,10,2,1,0.2,0.1,0.1,0.1,0.1,0.1, treatment day 5, T4 10 nM) was 1. For the same compound, the metamorphosis stage (individual Exp. 5-3, 175 days old, total length 41.7 mm at start, c3 onward = treatment days 1,3,5,7,8,9,10,11,12,13,14,15,16,17,18, T4 (nM) 10,10,10,10,2,1,0.2,0.1,0.1,0.1,0.1,0.1, treatment day 7, T4 10 nM) was 2, the metamorphosis stage (individual Exp. 5-3, 175 days old, total length 41.7 mm at start, c3 onward = treatment days 1,3,5,7,8,9,10,11,12,13,14,15,16,17,18, T4 (nM) 10,10,10,10,2,1,0.2,0.1,0.1,0.1,0.1,0.1, treatment day 8, T4 2 nM) was 2 and the metamorphosis stage (individual Exp. 5-3, 175 days old, total length 41.7 mm at start, c3 onward = treatment days 1,3,5,7,8,9,10,11,12,13,14,15,16,17,18, T4 (nM) 10,10,10,10,2,1,0.2,0.1,0.1,0.1,0.1,0.1, treatment day 9, T4 1 nM) was 2. For the same compound, the metamorphosis stage (individual Exp. 5-3, 175 days old, total length 41.7 mm at start, c3 onward = treatment days 1,3,5,7,8,9,10,11,12,13,14,15,16,17,18, T4 (nM) 10,10,10,10,2,1,0.2,0.1,0.1,0.1,0.1,0.1, treatment day 10, T4 0.2 nM) was 2, the metamorphosis stage (individual Exp. 5-3, 175 days old, total length 41.7 mm at start, c3 onward = treatment days 1,3,5,7,8,9,10,11,12,13,14,15,16,17,18, T4 (nM) 10,10,10,10,2,1,0.2,0.1,0.1,0.1,0.1,0.1, treatment day 11, T4 0.1 nM) was 3 and the metamorphosis stage (individual Exp. 5-3, 175 days old, total length 41.7 mm at start, c3 onward = treatment days 1,3,5,7,8,9,10,11,12,13,14,15,16,17,18, T4 (nM) 10,10,10,10,2,1,0.2,0.1,0.1,0.1,0.1,0.1, treatment day 12, T4 0.1 nM) was 3. It also gave a metamorphosis stage (individual Exp. 5-3, 175 days old, total length 41.7 mm at start, c3 onward = treatment days 1,3,5,7,8,9,10,11,12,13,14,15,16,17,18, T4 (nM) 10,10,10,10,2,1,0.2,0.1,0.1,0.1,0.1,0.1, treatment day 13, T4 0.1 nM) of 3, a metamorphosis stage (individual Exp. 5-3, 175 days old, total length 41.7 mm at start, c3 onward = treatment days 1,3,5,7,8,9,10,11,12,13,14,15,16,17,18, T4 (nM) 10,10,10,10,2,1,0.2,0.1,0.1,0.1,0.1,0.1, treatment day 14, T4 0.1 nM) of 3 and a metamorphosis stage (individual Exp. 5-3, 175 days old, total length 41.7 mm at start, c3 onward = treatment days 1,3,5,7,8,9,10,11,12,13,14,15,16,17,18, T4 (nM) 10,10,10,10,2,1,0.2,0.1,0.1,0.1,0.1,0.1, treatment day 15, T4 0.1 nM) of 3. The metamorphosis stage (individual Exp. 5-3, 175 days old, total length 41.7 mm at start, c3 onward = treatment days 1,3,5,7,8,9,10,11,12,13,14,15,16,17,18, T4 (nM) 10,10,10,10,2,1,0.2,0.1,0.1,0.1,0.1,0.1, treatment day 16) was 3, the metamorphosis stage (individual Exp. 5-3, 175 days old, total length 41.7 mm at start, c3 onward = treatment days 1,3,5,7,8,9,10,11,12,13,14,15,16,17,18, T4 (nM) 10,10,10,10,2,1,0.2,0.1,0.1,0.1,0.1,0.1, treatment day 17) was 3 and the metamorphosis stage (individual Exp. 5-3, 175 days old, total length 41.7 mm at start, c3 onward = treatment days 1,3,5,7,8,9,10,11,12,13,14,15,16,17,18, T4 (nM) 10,10,10,10,2,1,0.2,0.1,0.1,0.1,0.1,0.1, treatment day 18) was 4. The metamorphosis stage (individual Exp. 5-6, 174 days old, total length 34.5 mm at start, c3 onward = treatment days 1,3,5,7,8,9,10,11,12,13,14,15,16,17,18,20,22, T4 (nM) 10,10,10,10,10,10,10,2,1,1,0.2,0.1,0.1,0.1,0.1,0.1,0.1, treatment day 1, T4 10 nM) was “L”, the metamorphosis stage (individual Exp. 5-6, 174 days old, total length 34.5 mm at start, c3 onward = treatment days 1,3,5,7,8,9,10,11,12,13,14,15,16,17,18,20,22, T4 (nM) 10,10,10,10,10,10,10,2,1,1,0.2,0.1,0.1,0.1,0.1,0.1,0.1, treatment day 3, T4 10 nM) was “L” and the metamorphosis stage (individual Exp. 5-6, 174 days old, total length 34.5 mm at start, c3 onward = treatment days 1,3,5,7,8,9,10,11,12,13,14,15,16,17,18,20,22, T4 (nM) 10,10,10,10,10,10,10,2,1,1,0.2,0.1,0.1,0.1,0.1,0.1,0.1, treatment day 5, T4 10 nM) was “L”. For the same compound, the metamorphosis stage (individual Exp. 5-6, 174 days old, total length 34.5 mm at start, c3 onward = treatment days 1,3,5,7,8,9,10,11,12,13,14,15,16,17,18,20,22, T4 (nM) 10,10,10,10,10,10,10,2,1,1,0.2,0.1,0.1,0.1,0.1,0.1,0.1, treatment day 7, T4 10 nM) was “L”, the metamorphosis stage (individual Exp. 5-6, 174 days old, total length 34.5 mm at start, c3 onward = treatment days 1,3,5,7,8,9,10,11,12,13,14,15,16,17,18,20,22, T4 (nM) 10,10,10,10,10,10,10,2,1,1,0.2,0.1,0.1,0.1,0.1,0.1,0.1, treatment day 8, T4 10 nM) was 2 and the metamorphosis stage (individual Exp. 5-6, 174 days old, total length 34.5 mm at start, c3 onward = treatment days 1,3,5,7,8,9,10,11,12,13,14,15,16,17,18,20,22, T4 (nM) 10,10,10,10,10,10,10,2,1,1,0.2,0.1,0.1,0.1,0.1,0.1,0.1, treatment day 9, T4 10 nM) was 2. It also gave a metamorphosis stage (individual Exp. 5-6, 174 days old, total length 34.5 mm at start, c3 onward = treatment days 1,3,5,7,8,9,10,11,12,13,14,15,16,17,18,20,22, T4 (nM) 10,10,10,10,10,10,10,2,1,1,0.2,0.1,0.1,0.1,0.1,0.1,0.1, treatment day 10, T4 10 nM) of 2.
